The values below come from US20220304958A1, “SMALL MOLECULE INHIBITORS OF A PROTEIN COMPLEX” (THE REGENTS OF THE UNIVERSITY OF CALIFORNIA, priority 2019, published 2022).

The first test deals with T1, HEG1-KRIT1 interaction (Homo sapiens, UniProt O00522).
T1 construct: His6-EGFP-KRIT1 (WT) FERM domain (417-736) and KRIT1 (L717,721A) mutant were cloned into pETM-11; His6 (N); made in house; host or cells: E. coli BL21 Star (DE3)
T1 sequence (O00522 417-736): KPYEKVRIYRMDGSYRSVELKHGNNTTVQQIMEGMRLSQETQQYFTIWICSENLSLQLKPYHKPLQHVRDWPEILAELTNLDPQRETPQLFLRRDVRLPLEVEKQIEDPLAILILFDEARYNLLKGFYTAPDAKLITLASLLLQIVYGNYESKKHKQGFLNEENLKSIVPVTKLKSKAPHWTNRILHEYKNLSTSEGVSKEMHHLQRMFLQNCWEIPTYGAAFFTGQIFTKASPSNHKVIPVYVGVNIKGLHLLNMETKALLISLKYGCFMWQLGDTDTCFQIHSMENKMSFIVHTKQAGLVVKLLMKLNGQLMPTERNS
The test is described as follows: Flow cytometry assay for the HEG1-KRIT1 FERM domain interaction (competition binding on HEG1 matrix beads). To be noted: Table 2; flow cytometry-screening assay; NI = no inhibition detected up to 500 μM. The method, then: Bead Coupling. SPHERO Neutravidin Polystyrene Particles, […] (Spherotech) were washed twice with wash buffer (20 mM Tris, 150 mM NaCl. pH 7.4 containing 0.01% NP-40, and 1 mM EDTA). Prior to incubation with biotin-tagged HEG 1 cytoplasmic tail protein, an appropriate volume of bead slurry was passivated to inhibit non-specific binding by incubation for 30 minutes at room temperature in reaction buffer containing 0.1% BSA (20 mM Tris, 150 mM NaCl, pH 7.4 0.01% NP-40, 1 mM EDTA, 1 mM DTT, and 0.1% BSA). Passivated beads were collected by centrifugation, resuspended to 3,600 particles/μl in reaction buffer and biotinylated HEG1 tail was added to a final concentration of 150 nM and incubated overnight on a rotator at 4° C. The beads were washed three times by centrifugation with ice-cold reaction buffer to remove unbound HEG1 peptide. Beads were diluted such that a final concentration of 2000 beads/μL were available for addition to assay plates.
Flow cytometry assay. A final volume of 100 μl containing 140 nM EGFP-KRIT1 FERM domain, with 10% DMSO or 10% compounds in DMSO, was incubated for 15 minutes at room temperature on a rotator. 100 μl of beads were added to the mixture for a final volume of 200 μl at 1,000 particles/μl with 70 nM EGFP-KRIT1 and incubated for 15 minutes at room temperature on a rotator. The control beads were: without KRIT1 (minimum signal); with KRIT1 (maximum signal); and with KRIT1 plus 2 μM HEG1 7-mer (positive blocking control). The EGFP fluorescence was measured using a BD Accuri flow cytometer. For screening purposes, the final volume of the reaction was scaled down to 10 μl and samples were processed as previously described (27). For FIGS. 1D-1F, 2B, and 3E, a representative experiment is shown of at the least 3 independent repeats.
Assay plate assembly. Plate assays were performed in 384-well microtiter plates (Greiner Bio-one, #784101). Reaction buffer. HEG1-coupled beads, and EGFP-KRIT-FERM constructs were added using a MultiFlo™ Microplate Dispenser (BioTek Instruments, Inc.). Compounds were added to single-point assay plates pre-loaded with reaction buffer using a Biomek^NX liquid handler (BeckmanCoulter) equipped with a […] pintool (V & P Scientific, Inc.). Compound libraries were dispensed to a final concentration of 10 μM. An equal volume (10 nL) of DMSO was added to the vehicle control wells. Following the addition of library compounds, 5 μL of assay buffer was added and the plates were mixed before addition of 5 μL of the protein-coupled bead mixtures; Plates were protected from light and incubated on a rotator for 15 minutes at room temperature. Binding of EGFP-KRIT to HEG1 coupled beads was evaluated using an Accuri C6 flow cytometer.
Data Acquisition. Assay plates were sampled using the HyperCyt™ high throughput flow cytometry platform (Intellicyt; Albuquerque, N. Mex.). During sampling, the probe moves from well to well and samples 1-2 μL from each well pausing 0.4 sec in the air before sampling the next well. The resulting sample stream consisting of 384 separated samples is delivered to an Accuri C6 flow cytometer (BD Biosciences; San Jose, Calif.). Plate data are acquired as time-resolved files that are parsed by software-based well identification algorithms and merged with compound library files. Plate performance was validated using the Z-prime calculation (28).
Compounds that satisfied hit selection criteria in the primary screen were cherry-picked from compound storage plates and tested to confirm activity and determine potency. Dose response data points were fitted by Prism software (GraphPad Software Inc., San Diego, Calif.) using nonlinear least-squares regression in a sigmoidal dose-response model with variable slope, also known as the 4-parameter logistic equation.
In general terms: Flow cytometry measures light scatter and fluorescence of single cells or particles in a stream.
`Oc1ccc2ccccc2c1/C=N/c1ncn[nH]1` [BL-0550, (E)-1-(((1H-1,2,4-triazol-5-yl)imino)methy)naphthalen-2-ol]: the “IC50 (μM)” value is on record as “precipitation”. Turning to `Oc1ccc2ccccc2c1/C=N/c1cccnc1` [BL-0551, (E)-1-((pyridin-3-ylimino)methyl)naphthalen-2-ol], the “IC50 (μM)” value is given as “precipitation”.

On to `COC(=O)c1ccccc1NC(=O)c1c(O)ccc2ccccc12` [BL-0589, methyl 2-(2-hydroxy-1-naphthamido)benzoate], for which the “IC50 (μM)” value was “precipitation”.

The test is the same for the next values; noted with them: Table 2; flow cytometry-screening assay; NI = no inhibition detected up to 500 μM; read-out: IC50.
Turning to `O=C(O)c1ccccc1/N=C/c1c(O)ccc2ccccc12` [BL-0547 (Hki3), (E)-2-(((2-hydroxynaphthalen-1-yl)methylene)amino)benzoic acid], the IC50 (in general, the point on the concentration scale where inhibition reaches its midpoint) amounted to 2.9 µM.

As to `Oc1ccc2ccccc2c1/C=N/c1nn[nH]n1` [BL-0549, (E)-1-(((1H-tetrazol-5-yl)imino)methyl)naphthalen-2-ol], the 50% inhibitory concentration (IC50) is 3.2 µM. Turning to `O=C(O)c1ccc(/N=C/c2c(O)ccc3ccccc23)cc1` [BL-0552, (E)-4-(((2-hydroxynaphthalen-1-yl)methylene)amino)benzoic acid], the IC50 is 1.8 µM. As for `O=C(O)c1cccc(/N=C/c2c(O)ccc3ccccc23)c1` [BL-0558, (E)-3-(((2-hydroxynaphthalen-1-yl)methylene)amino)benzoic acid], the half-maximal inhibitory concentration (IC50) stood at 3.2 µM. As to `O=C(O)c1ccccc1NCc1c(O)ccc2ccccc12` [BL-0588, 2-(((2-hydroxynaphthalen-1-yl)methyl)amino)benzoic acid], the IC50 is more than 500 µM. Regarding `O=C(O)c1ccccc1NC(=O)c1c(O)ccc2ccccc12` [BL-0590, 2-(2-hydroxy-1-naphthamido)benzoic acid], the IC50 is more than 500 µM. For the compound `ON=Cc1c(O)ccc2ccccc12` [BL-0591, 2-hydroxy-l-naphthaldehyde oxime], the IC50 is more than 500 µM. Consider `NCc1c(O)ccc2ccccc12` [BL-0592, 1-(aminomethyl)naphthalen-2-ol], for which the IC50 was more than 500 µM. With `c1ccc2c(c1)ccc1oncc12` [BL-0593, naphtho[1,2-d]isoxazole], the IC50 is more than 500 µM. On to `O=C(O)c1ccccc1C#Cc1c(O)ccc2ccccc12` [BL-0604, 2-((2-hydroxynaphthalen-1-yl)ethynyl)benzoic acid], for which the IC50 was more than 500 µM. The same measure, in the same setting: then `O=C(O)c1ccccc1/C=C/c1c(O)ccc2ccccc12` [BL-0605, (E)-2-(2-(2-hydroxynaphthalen-1-yl)vinyl)benzoic acid], with more than 500 µM. Consider `O=C(O)c1ccccc1CCc1c(O)ccc2ccccc12` [BL-0606, 2-(2-(2-hydroxynaphthalen-1-yl)ethyl)benzoic acid], for which the IC50 is more than 500 µM. Consider `O=Cc1nccc2ccccc12` [BL-0607, Isoquinoline-1-carbaldehyde], for which the IC50 was more than 500 µM. The same measure, in the same setting: then `O=Cc1cc(-c2ccccc2)ccc1O` [BL-0628 (HKi4), 4-Hydroxy-[1,1′-biphenyl]-3-carbaldehyde], with 21.8 µM; and `Oc1ccc2c(/C=N/c3ccccc3)c(O)ccc2c1` [BL-0661 (HKi7), 1-((phenylimino)methyl)naphthalene-2,6-diol], with 32 µM; and `Cc1ccc2c(C=O)c(O)ccc2c1` [BL-0666 (HKi8), 2-hydroxy-6-methyl-1-naphthaldehyde], with 5.1 µM.

Regarding `COc1cccc2ccc(O)c(C=O)c12` [BL-0691, 2-hydroxy-8-methoxy-1-naphthaldehyde], the IC50 was 18 µM. For the compound `O=Cc1c(O)ccc2cccc(O)c12` [BL-0693, 2,8-dihydroxy-1-naphthaldehyde], the IC50 is 45 µM. With `OC1(c2cccc3ccccc23)COC1` [BL-0695, 3-(naphthalen-1-yl)oxetan-3-ol], the IC50 was more than 500 µM.

With `CC(=O)c1ccc2c(C=O)c(O)ccc2c1` [BL-0700 (HKi9), 6-acetyl-2-hydroxy-1-naphthaldehyde], the IC50 stood at 58.6 µM. As to `O=Cc1c(O)ccc2cc(Cl)ccc12` [BL-702 (Hki10), 6-chloro-2-hydroxy-1-naphthaldehyde], the concentration for half-maximal inhibition (IC50) amounted to 3.2 µM. For `OCC(CO)c1c(O)ccc2ccccc12` [BL-703, 2-(2-hydroxynaphthalen-1-yl)propane-1,3-diol], the IC50 is more than 500 µM. `CS(=O)(=O)c1c(O)ccc2ccccc12` [BL-704, 1-(Methylsulfonyl)naphthalen-2-ol]: the IC50 is more than 500 µM. On the same count and under the same terms, then `C[S+]([O-])c1c(O)ccc2ccccc12` (stereo not shown) [BL-705, 1-(Methylsulfinyl)naphthalen-2-ol], with more than 500 µM; and `Oc1ccc2ccccc2c1C(O)C(F)(F)F` (stereo not shown) [BL-706, 1-(2,2,2-Trifluoro-1-hydroxyethyl)naphthalen-2-ol], with more than 500 µM. The same measure, in the same setting: next, `CSc1c(O)ccc2ccccc12` [BL-707, 1-(methylthio)naphthalen-2-ol]: more than 500 µM; `CC(O)c1c(O)ccc2ccccc12` (stereo not shown) [BL-0713, 1-(1-hydroxyethyl)naphthalen-2-ol]: more than 500 µM; `O=Cc1c(O)ccc2cc(N3CCCCC3)ccc12` [BL-0736, 2-Hydroxy-6-(piperidin-1-yl)-1-naphthaldehyde]: 28.8 µM. `CN(C)c1ccc2c(C=O)c(O)ccc2c1` [BL-0737, 6-(Dimethylamino)-2-hydroxy-1-naphthaldehyde]: the IC50 stood at 2.6 µM. `O=Cc1c(O)ccc2cc(N3CCC3=O)ccc12` [BL-0738, 2-Hydroxy-6-(2-oxoazetidin-1-yl)-1-naphthaldehyde]: the IC50 is 30.3 µM. Same read-out and setting: then `C=CCc1ccc2c(C=O)c(O)ccc2c1` [BL-0739, 6-Allyl-2-hydroxy-1-naphthaldehyde], with 1.1 µM; and `CCc1ccc2c(C=O)c(O)ccc2c1` [BL-0740, 6-Ethyl-2-hydroxy-1-naphthaldehyde], with 3.9 µM; and `C#Cc1ccc2c(C=O)c(O)ccc2c1` [BL-0742, 6-Ethynyl-2-hydroxy-1-naphthaldehyde], with 4 µM.

On to `CCCCc1ccc2c(C=O)c(O)ccc2c1` [BL-0743, 6-Butyl-2-hydroxy-1-naphthaldehyde], for which the IC50 worked out at 78.8 µM. Regarding `CCOC(=O)/C=C/c1ccc2c(C=O)c(O)ccc2c1` [BL-0744, Ethyl (E)-3-(5-formyl-6-hydroxynaphthalen-2-yl)acrylate], the IC50 was 79.3 µM. `CC(O)c1ccc2c(C=O)c(O)ccc2c1` (stereo not shown) [BL-0745, 2-Hydroxy-6-(1-hydroxyethyl)-1-naphthaldehyde]: the IC50 turned out to be 31.9 µM. Turning to `N#Cc1ccc2c(C=O)c(O)ccc2c1` [BL-0788, 5-Formyl-6-hydroxy-2-naphthonitrile], the IC50 is 3.6 µM. In the case of `CCOc1ccc2c(C=O)c(O)ccc2c1` [BL-0794, 6-Ethoxy-2-hydroxy-1-naphthaldehyde], the IC50 came out at 4.6 µM. In the case of `CC#Cc1ccc2c(C=O)c(O)ccc2c1` [BL-0817, 2-Hydroxy-6-(prop-1-yn-1-yl)-1-naphthaldehyde], the IC50 was 15 µM. For `O=Cc1c(O)ccc2cc(-c3ccccc3)ccc12` [BL-0818, 2-Hydraxy-6-phenyl-1-naphthaldehyde], the half-maximal inhibitory concentration (IC50) was found to be 3 µM. As to `O=Cc1c(O)ccc2cc(-c3cccs3)ccc12` [BL-0819, 2-Hydroxy-6-(thiophen-2-yl)-1-naphthaldehyde], the IC50 is 1.2 µM. On to `CC(NC(=O)c1ccccc1N)c1ccccc1` (stereo not shown) [Compound 4, 2-amino-N-(1-phenylethyl)benzamide], for which the IC50 was more than 500 µM.

The same test, now with this note: inhibition of the HEG1-KRIT1 interaction, flow cytometry assay.
With `O=Cc1nccc2ccccc12` [BL-0607, Isoquinoline-1-carbaldehyde], the half-maximal inhibitory concentration (IC50) result is on record as “no inhibition”.
